Results: ChEMBL document CHEMBL3792299, “Novel tricyclics (e.g., GSK945237) as potent inhibitors of bacterial type IIA topoisomerases” (Bioorg Med Chem Lett, 2016)
Values after ≈ are worked out from the molar mass of the structure shown. Active and inactive are the calls of the source. The calls are words filed in the database; no cut-off is given here.

How the values were obtained:
[1] = Inhibition of Haemophilus influenzae DNA gyrase-dependent DNA replication by scintillation proximity assay
Haemophilus influenzae = test: Antibacterial activity against Haemophilus influenzae H128 after 18 to 24 hrs by broth microdilution method; format: functional
Staphylococcus aureus = test: Antibacterial activity against Staphylococcus aureus WCUH 29 after 18 to 24 hrs by broth microdilution method; format: functional
Streptococcus pneumoniae [2] = test: Antibacterial activity against quinolone-resistant Streptococcus pneumoniae TPS3 after 18 to 24 hrs by broth microdilution method; format: functional
[3] = target: Voltage-gated inwardly rectifying potassium channel KCNH2 (Homo sapiens, UniProt Q12809); test: Inhibition of human ERG
Chain of Voltage-gated inwardly rectifying potassium channel KCNH2 (Q12809 whole entry): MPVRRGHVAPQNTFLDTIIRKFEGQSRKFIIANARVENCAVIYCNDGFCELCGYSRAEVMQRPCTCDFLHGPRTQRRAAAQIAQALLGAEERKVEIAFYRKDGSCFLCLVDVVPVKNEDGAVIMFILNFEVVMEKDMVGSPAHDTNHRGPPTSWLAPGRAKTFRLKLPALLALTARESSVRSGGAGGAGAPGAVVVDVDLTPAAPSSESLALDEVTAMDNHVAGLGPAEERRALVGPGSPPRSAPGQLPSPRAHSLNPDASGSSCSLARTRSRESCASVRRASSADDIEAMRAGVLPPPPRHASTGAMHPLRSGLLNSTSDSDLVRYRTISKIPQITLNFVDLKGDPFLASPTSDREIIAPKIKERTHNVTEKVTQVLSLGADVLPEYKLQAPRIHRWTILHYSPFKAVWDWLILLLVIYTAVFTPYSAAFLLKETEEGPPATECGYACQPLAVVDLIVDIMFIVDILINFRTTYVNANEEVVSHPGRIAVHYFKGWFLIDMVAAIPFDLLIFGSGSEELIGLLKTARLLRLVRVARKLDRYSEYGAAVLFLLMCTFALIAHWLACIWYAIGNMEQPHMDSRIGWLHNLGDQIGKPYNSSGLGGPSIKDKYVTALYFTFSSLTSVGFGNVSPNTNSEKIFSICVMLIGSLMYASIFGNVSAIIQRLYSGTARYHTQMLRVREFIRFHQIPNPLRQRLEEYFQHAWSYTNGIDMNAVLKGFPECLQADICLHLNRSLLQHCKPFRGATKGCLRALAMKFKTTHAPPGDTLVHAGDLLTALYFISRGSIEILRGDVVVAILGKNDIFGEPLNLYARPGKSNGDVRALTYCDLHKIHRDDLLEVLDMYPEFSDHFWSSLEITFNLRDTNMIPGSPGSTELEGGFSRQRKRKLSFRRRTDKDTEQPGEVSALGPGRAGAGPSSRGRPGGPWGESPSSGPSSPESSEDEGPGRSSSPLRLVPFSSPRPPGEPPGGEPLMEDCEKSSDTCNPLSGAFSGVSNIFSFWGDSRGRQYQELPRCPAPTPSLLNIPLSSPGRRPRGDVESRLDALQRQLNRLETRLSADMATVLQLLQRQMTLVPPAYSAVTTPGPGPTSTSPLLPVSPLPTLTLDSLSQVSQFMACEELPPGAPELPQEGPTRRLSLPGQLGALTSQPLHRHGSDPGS

[4] = Volume of distribution at steady state in Sprague-Dawley rat at 3 mg/kg, iv administered as single dose by LC/MS/MS analysis; format: ADME, organism-based; conditions: in vivo, read-out: Vdss
[5] = Terminal half life in Sprague-Dawley rat at 3 mg/kg, iv administered as single dose by LC/MS/MS analysis; format: ADME, organism-based; conditions: in vivo, read-out: beta t1/2 (converted)
[6] = Cmax in Sprague-Dawley rat at 5 mg/kg, po administered as single dose by LC/MS/MS analysis; format: ADME, organism-based; parameters: dose 5 mg/kg, route oral; conditions: in vivo
Rattus norvegicus [7] = test: AUC in Sprague-Dawley rat at 5 mg/kg, po administered as single dose by LC/MS/MS analysis; format: ADME, organism-based; conditions: in vivo
Rattus norvegicus [8] = test: Oral bioavailability in Sprague-Dawley rat at 5 mg/kg administered as single dose by LC/MS/MS analysis; format: ADME, organism-based; conditions: in vivo
[9] = Plasma protein binding in Sprague-Dawley rat at 0.5 to 5 ug/ml by equilibrium dialysis method; format: ADME, cell-free; conditions: read-out: PPB (converted)
Liver microsome [10] = test: Intrinsic clearance in Sprague-Dawley rat liver microsomes assessed per gram of liver at 0.5 uM by LC/MS/MS analysis; format: ADME
[11] = Volume of distribution at steady state in Beagle dog at 3 mg/kg, iv administered as single dose by LC/MS/MS analysis; format: ADME, organism-based, Canis lupus familiaris; conditions: in vivo, read-out: Vdss
[12] = Terminal half life in Beagle dog at 3 mg/kg, iv administered as single dose by LC/MS/MS analysis; format: ADME, organism-based, Canis lupus familiaris; conditions: in vivo, read-out: beta t1/2 (converted)
[13] = Cmax in Beagle dog at 5 mg/kg, po administered as single dose by LC/MS/MS analysis; format: ADME, organism-based, Canis lupus familiaris; parameters: dose 5 mg/kg, route oral; conditions: in vivo
Canis familiaris [14] = test: AUC in Beagle dog at 5 mg/kg, po administered as single dose by LC/MS/MS analysis; format: ADME, organism-based, Canis lupus familiaris; conditions: in vivo
Canis familiaris [15] = test: Oral bioavailability in Beagle dog at 5 mg/kg administered as single dose by LC/MS/MS analysis; format: ADME, organism-based, Canis lupus familiaris; conditions: in vivo
[16] = Plasma protein binding in Beagle dog at 0.5 to 5 ug/ml by equilibrium dialysis method; format: ADME, cell-free, Canis lupus familiaris; conditions: read-out: PPB (converted)
Liver microsome [17] = test: Intrinsic clearance in Beagle dog liver microsomes assessed per gram of liver at 0.5 uM by LC/MS/MS analysis; format: ADME, Canis lupus familiaris
[18] = Volume of distribution at steady state in cynomolgus monkey at 3 mg/kg, iv administered as single dose by LC/MS/MS analysis; format: ADME, organism-based, Macaca fascicularis; conditions: in vivo, read-out: Vdss
[19] = Terminal half life in cynomolgus monkey at 3 mg/kg, iv administered as single dose by LC/MS/MS analysis; format: ADME, organism-based, Macaca fascicularis; conditions: in vivo, read-out: beta t1/2 (converted)
[20] = Cmax in cynomolgus monkey at 5 mg/kg, po administered as single dose by LC/MS/MS analysis; format: ADME, organism-based, Macaca fascicularis; parameters: dose 5 mg/kg, route oral; conditions: in vivo
Cynomolgus monkey [21] = test: AUC in cynomolgus monkey at 5 mg/kg, po administered as single dose by LC/MS/MS analysis; format: ADME, organism-based, Macaca fascicularis; conditions: in vivo
Cynomolgus monkey [22] = test: Oral bioavailability in cynomolgus monkey at 5 mg/kg administered as single dose by LC/MS/MS analysis; format: ADME, organism-based, Macaca fascicularis; conditions: in vivo
[23] = Plasma protein binding in cynomolgus monkey at 0.5 to 5 ug/ml by equilibrium dialysis method; format: ADME, cell-free, Macaca fascicularis; conditions: read-out: PPB (converted)
[24] = Intrinsic clearance in cynomolgus monkey liver microsomes assessed per gram of liver at 0.5 uM by LC/MS/MS analysis; format: ADME, Macaca fascicularis
Rattus norvegicus [25] = test: Blood clearance in Sprague-Dawley rat at 3 mg/kg, iv administered as single dose by LC/MS/MS analysis relative to hepatic blood flow; format: ADME, organism-based, Liver; conditions: in vivo
Canis familiaris [26] = test: Blood clearance in Beagle dog at 3 mg/kg, iv administered as single dose by LC/MS/MS analysis relative to hepatic blood flow; format: ADME, organism-based, Canis lupus familiaris, Liver; conditions: in vivo
Cynomolgus monkey [27] = test: Blood clearance in cynomolgus monkey at 3 mg/kg, iv administered as single dose by LC/MS/MS analysis relative to hepatic blood flow; format: ADME, organism-based, Macaca fascicularis, Liver; conditions: in vivo
Canis familiaris [28] = test: Renal clearance in Beagle dog at 3 mg/kg, iv administered as single dose by LC/MS/MS analysis relative to total clearance; format: ADME, organism-based, Canis lupus familiaris, Kidney; conditions: in vivo
Cynomolgus monkey [29] = test: Renal clearance in cynomolgus monkey at 3 mg/kg, iv administered as single dose by LC/MS/MS analysis relative to total clearance; format: ADME, organism-based, Macaca fascicularis, Kidney; conditions: in vivo
Rattus norvegicus [30] = test: AUC in Sprague-Dawley rat at 100 mg/kg, po bid by LC/MS/MS analysis; format: ADME, organism-based; conditions: in vivo
[31] = Cmax in Sprague-Dawley rat at 100 mg/kg, po bid by LC/MS/MS analysis; format: ADME, organism-based; parameters: dose 100 mg/kg, route oral; conditions: in vivo
Streptococcus pneumoniae [32] = test: Antibacterial activity against quinolone-resistant Streptococcus pneumoniae TPS3 in rat respiratory tract infection model assessed as decrease in bacterial burden in lung at 50 mg/kg po bid administered through gavage at 1, 7, 24,31 hrs post infection measured after 48 hrs; format: functional, organism-based
Streptococcus pneumoniae [33] = test: Antibacterial activity against quinolone-resistant Streptococcus pneumoniae TPS3 in rat respiratory tract infection model assessed as decrease in bacterial burden in lung at 100 mg/kg, po bid administered through gavage at 1, 7, 24,31 hrs post infection measured after 48 hrs; format: functional, organism-based

SMILES: Cc1cc(F)c2c3c1ccc(=O)n3C[C@H]2CN1CCC(NCc2cc3c(nn2)OCCO3)CC1
- IC50 [1]: 0.099 µg/mL (≈ 0.213 µM)
- MIC (Haemophilus influenzae): 2 µg/mL (≈ 4.3 µM)
- MIC (Staphylococcus aureus): 0.06 µg/mL (≈ 0.129 µM)
- MIC (Streptococcus pneumoniae [2]): 0.5 µg/mL (≈ 1.07 µM)

SMILES: O=C1CC(NCc2cc3c(nn2)OCCO3)CCN1C[C@@H]1Cn2c(=O)ccc3ccc(F)c1c32 (stereo partly specified)
- IC50 [1]: 0.166 µg/mL (≈ 0.357 µM)
- MIC (Haemophilus influenzae): > 16 µg/mL
- MIC (Staphylococcus aureus): 16 µg/mL (≈ 34.4 µM)
- MIC (Streptococcus pneumoniae [2]): 16 µg/mL (≈ 34.4 µM)

SMILES: O=c1ccc2cccc3c2n1C[C@H]3CN1CCC(NCc2cc3c(nn2)OCCO3)CC1
- MIC (Haemophilus influenzae): 2 µg/mL (≈ 4.61 µM)
- MIC (Staphylococcus aureus): 0.5 µg/mL (≈ 1.15 µM)
- MIC (Streptococcus pneumoniae [2]): 1 µg/mL (≈ 2.31 µM)

SMILES: O=c1ccc2ccc(F)c3c2n1C[C@H]3CN1CCCC(CNCc2cc3c(nn2)OCCO3)C1 (stereo partly specified)
- IC50 [1]: 0.666 µg/mL (≈ 1.43 µM)
- MIC (Haemophilus influenzae): > 16 µg/mL
- MIC (Staphylococcus aureus): 1 µg/mL (≈ 2.15 µM)
- MIC (Streptococcus pneumoniae [2]): 4 µg/mL (≈ 8.59 µM)

SMILES: N#Cc1ccc2ccc(=O)n3c2c1[C@H](CN1CCC(NCc2cc4c(nn2)OCCO4)CC1)C3
- IC50 [1]: 0.062 µg/mL (≈ 0.135 µM)
- MIC (Haemophilus influenzae): 2 µg/mL (≈ 4.36 µM)
- MIC (Staphylococcus aureus): 0.25 µg/mL (≈ 0.545 µM)
- MIC (Streptococcus pneumoniae [2]): 0.5 µg/mL (≈ 1.09 µM)

SMILES: O=c1ccc2ccc(F)c3c2n1C[C@@H]3CN1CCC(NCc2cc3c(nn2)OCCO3)CC1
- IC50 [1]: 0.121 µg/mL (≈ 0.268 µM)
- MIC (Haemophilus influenzae): > 16 µg/mL
- MIC (Staphylococcus aureus): 2 µg/mL (≈ 4.43 µM)
- MIC (Streptococcus pneumoniae [2]): 8 µg/mL (≈ 17.7 µM)

SMILES: Cc1ccc2ccc(=O)n3c2c1[C@H](CN1CCC(NCc2cc4c(nn2)OCCO4)CC1)C3
- IC50 [1]: 0.076 µg/mL (≈ 0.17 µM)
- MIC (Haemophilus influenzae): 4 µg/mL (≈ 8.94 µM)
- MIC (Staphylococcus aureus): 0.25 µg/mL (≈ 0.559 µM)
- MIC (Streptococcus pneumoniae [2]): 1 µg/mL (≈ 2.23 µM)

SMILES: COc1ccc2ccc(=O)n3c2c1[C@H](CN1CCC(NCc2cc4c(nn2)OCCO4)CC1)C3
- IC50 [1]: 0.276 µg/mL (≈ 0.595 µM)
- MIC (Haemophilus influenzae): 16 µg/mL (≈ 34.5 µM)
- MIC (Staphylococcus aureus): 2 µg/mL (≈ 4.31 µM)
- MIC (Streptococcus pneumoniae [2]): 8 µg/mL (≈ 17.3 µM)

SMILES: O=c1cnc2ccc(F)c3c2n1C[C@H]3CN1CCC(NCc2cc3c(nn2)OCCO3)CC1
- IC50 [1]: 0.036 µg/mL (≈ 0.0796 µM)
- MIC (Haemophilus influenzae): 0.5 µg/mL (≈ 1.1 µM)
- MIC (Staphylococcus aureus): 0.06 µg/mL (≈ 0.133 µM)

SMILES: O=c1ccc2ccc(F)c3c2n1C[C@H]3CN1CCC(NCc2cc3c(nn2)OCCO3)CC1 [GSK-945237]
- IC50 [1]: 0.034 µg/mL (≈ 0.0753 µM)
- MIC (Haemophilus influenzae): 1 µg/mL (≈ 2.21 µM)
- MIC (Staphylococcus aureus): 0.06 µg/mL (≈ 0.133 µM)
- MIC (Streptococcus pneumoniae [2]): 0.25 µg/mL (≈ 0.554 µM)
- IC50 [3]: 238 µM
- Vd [4]: 7.2 L/kg
- half-life [5]: 1.9 h
- Cmax [6]: 40 ng/mL
- AUC (Rattus norvegicus [7]): 290 ng·h/mL
- F (Rattus norvegicus [8]): 22%
- fraction unbound [9]: 0.367
- CLint (Liver microsome [10]): 0.7 mL/min/g
- Vd [11]: 6.1 L/kg
- half-life [12]: 8.8 h
- Cmax [13]: 1070 ng/mL
- AUC (Canis familiaris [14]): 6050 ng·h/mL
- F (Canis familiaris [15]): 100%
- fraction unbound [16]: 0.53
- CLint (Liver microsome [17]): < 0.6 mL/min/g
- Vd [18]: 8.2 L/kg
- half-life [19]: 7.6 h
- Cmax [20]: 210 ng/mL
- AUC (Cynomolgus monkey [21]): 1190 ng·h/mL
- F (Cynomolgus monkey [22]): 34%
- fraction unbound [23]: 0.576
- CLint [24]: 1.5 mL/min/g
- CL (Rattus norvegicus [25]): 100%
- CL (Canis familiaris [26]): 40%
- CL (Cynomolgus monkey [27]): 40%
- CL (Canis familiaris [28]): 74%
- CL (Cynomolgus monkey [29]): 45%
- AUC (Rattus norvegicus [30]): 30 ug.hr/ml/day
- Cmax [31]: 3000 ng/mL
- Activity (Streptococcus pneumoniae [32]): Active
- Activity (Streptococcus pneumoniae [33]): Active

SMILES: COc1c(N2C[C@@H]3CCCN[C@@H]3C2)c(F)cc2c(=O)c(C(=O)O)cn(C3CC3)c12 [MOXIFLOXACIN]
- MIC (Streptococcus pneumoniae [2]): 4 µg/mL (≈ 9.96 µM)
- Activity (Streptococcus pneumoniae [33]): inactive
